# Experimental data published in PMC4334441 (Analytical biochemistry, 2013).
# Where two headings read alike, the source gives them in different places.
# What was measured:
# Assay type in all cases: biochemical
# [1] = biological target: mammalian-produced ADAM17 ECD (Homo sapiens, UniProt P78536); assay: Inhibition kinetics; details: for Ki/Ki′ (alpha) / inhibition mechanism: mammalian-produced ADAM17 ECD; for Ki/Ki′ (alpha): mixed-model inhibition; for inhibition mechanism: confirmed by Lineweaver-Burke plots
# Sequence of mammalian-produced ADAM17 ECD (P78536 215-651 limits assumed): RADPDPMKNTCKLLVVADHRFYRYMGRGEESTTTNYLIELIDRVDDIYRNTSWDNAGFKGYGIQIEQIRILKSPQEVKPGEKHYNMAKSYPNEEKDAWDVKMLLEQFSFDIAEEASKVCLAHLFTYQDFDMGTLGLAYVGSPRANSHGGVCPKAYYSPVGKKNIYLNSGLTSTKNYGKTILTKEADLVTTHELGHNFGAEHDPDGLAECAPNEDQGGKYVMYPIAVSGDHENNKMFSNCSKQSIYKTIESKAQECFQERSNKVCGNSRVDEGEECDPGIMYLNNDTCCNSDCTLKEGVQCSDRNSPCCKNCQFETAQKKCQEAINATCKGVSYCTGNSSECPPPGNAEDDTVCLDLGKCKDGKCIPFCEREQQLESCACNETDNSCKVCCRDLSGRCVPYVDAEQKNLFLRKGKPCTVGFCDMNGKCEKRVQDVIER
# [2] = biological target: mammalian-expressed ADAM17_ECD (Homo sapiens, UniProt P78536); assay: Inhibition studies; details: comparison of insect- and mammalian-produced ADAM17_ECD
# Sequence of mammalian-expressed ADAM17_ECD (P78536 215-651 limits assumed): as above
# [3] = biological target: insect-produced ADAM17 ECD (Homo sapiens, UniProt P78536); assay: Inhibition kinetics; details: for Ki/Ki′ (alpha) / inhibition mechanism: insect-produced ADAM17 ECD; for Ki/Ki′ (alpha): mixed-model inhibition; for inhibition mechanism: confirmed by Lineweaver-Burke plots
# Sequence of insect-produced ADAM17 ECD (P78536 215-671 limits assumed): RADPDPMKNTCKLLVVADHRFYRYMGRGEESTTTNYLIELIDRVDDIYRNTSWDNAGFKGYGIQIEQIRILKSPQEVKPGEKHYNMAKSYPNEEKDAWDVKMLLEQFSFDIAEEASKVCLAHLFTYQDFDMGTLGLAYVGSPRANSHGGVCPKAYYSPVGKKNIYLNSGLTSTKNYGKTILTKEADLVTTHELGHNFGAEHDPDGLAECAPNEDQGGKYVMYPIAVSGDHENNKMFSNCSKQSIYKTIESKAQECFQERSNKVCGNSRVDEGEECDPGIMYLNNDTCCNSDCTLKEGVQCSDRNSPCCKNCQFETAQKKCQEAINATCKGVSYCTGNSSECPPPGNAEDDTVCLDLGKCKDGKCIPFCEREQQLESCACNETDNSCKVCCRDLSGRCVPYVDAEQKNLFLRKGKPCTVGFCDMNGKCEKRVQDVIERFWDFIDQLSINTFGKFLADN
# [4] = biological target: insect-produced ADAM17_ECD (R&D Systems) (Homo sapiens, UniProt P78536); assay: ADAM17 active site titration with MMP-9/-13 inhibitor, insect-produced ADAM17
# Sequence of insect-produced ADAM17_ECD (R&D Systems) (P78536 215-671 limits assumed): as above
Structure (SMILES),"Ki ([1]; mammalian-produced ADAM17, mixed inhibition model, non-linear regression)",Ki/Ki′ (alpha) [1],inhibition mechanism ([1]; non-linear regression),dose response curves for inhibition of insect- versus mammalian-expressed ADAM17 [2],"Ki ([3]; insect-produced ADAM17, mixed inhibition model, non-linear regression)",Ki/Ki′ (alpha) [3],inhibition mechanism ([3]; non-linear regression),Ki [1],Ki [3],"stoichiometry of ADAM17_ECD and MMP-9/-13 inhibitor (factor) ([4]; 10.5 nM divided by enzyme concentration 0.4 nM, Fig. 5B)","concentration of inhibitor necessary to produce 100% inhibition of ADAM17 ([4]; titration, enzyme concentration 0.4 nM, Fig. 5A)"
CC(C)C[C@H](CC(=O)NO)C(=O)N[C@H](C(=O)N[C@@H](C)C(=O)NCCN)C(C)(C)C [TAPI-2],32 ± 5 nM,2.27 ± 0.55,mixed inhibition,superimposable,31 ± 1.4 nM,1.76 ± 0.42,mixed inhibition,–,–,–,–
"COc1ccc(S(=O)(=O)N2CCN(C(=O)c3ccc(-c4ccccc4)cc3)CC2C(=O)NO)cc1 (centres unmarked) [MMP-9/-13 inhibitor, N-hydroxy-1-(4-methoxyphenyl)sulfonyl-4-(4-biphenylcarbonyl)piperazine-2-carboxamide]",–,0.99 ± 0.34,pure non-competitive inhibition,superimposable,–,0.91 ± 0.26,pure non-competitive inhibition,1.8 ± 0.1 nM,3.1 ± 0.2 nM,26.3,10.5 nM
"CC(=O)NO [AHA, N-acetohydroxamic acid]",–,–,–,superimposable,–,–,–,–,–,–,–
